# According to ChEMBL document CHEMBL5465560, “Selectivity Literature for EUbOPEN Chemogenomic Library” (2024):
# Tests used:
# [1] = molecular target: T1, Receptor-interacting serine/threonine-protein kinase 4 (Homo sapiens) (UniProt P57078); experiment: Selectivity interaction (KinomeScan (DiscoverX)) EUB0000595a RIPK4; settings: at 10 µM
# T1 sequence (whole entry): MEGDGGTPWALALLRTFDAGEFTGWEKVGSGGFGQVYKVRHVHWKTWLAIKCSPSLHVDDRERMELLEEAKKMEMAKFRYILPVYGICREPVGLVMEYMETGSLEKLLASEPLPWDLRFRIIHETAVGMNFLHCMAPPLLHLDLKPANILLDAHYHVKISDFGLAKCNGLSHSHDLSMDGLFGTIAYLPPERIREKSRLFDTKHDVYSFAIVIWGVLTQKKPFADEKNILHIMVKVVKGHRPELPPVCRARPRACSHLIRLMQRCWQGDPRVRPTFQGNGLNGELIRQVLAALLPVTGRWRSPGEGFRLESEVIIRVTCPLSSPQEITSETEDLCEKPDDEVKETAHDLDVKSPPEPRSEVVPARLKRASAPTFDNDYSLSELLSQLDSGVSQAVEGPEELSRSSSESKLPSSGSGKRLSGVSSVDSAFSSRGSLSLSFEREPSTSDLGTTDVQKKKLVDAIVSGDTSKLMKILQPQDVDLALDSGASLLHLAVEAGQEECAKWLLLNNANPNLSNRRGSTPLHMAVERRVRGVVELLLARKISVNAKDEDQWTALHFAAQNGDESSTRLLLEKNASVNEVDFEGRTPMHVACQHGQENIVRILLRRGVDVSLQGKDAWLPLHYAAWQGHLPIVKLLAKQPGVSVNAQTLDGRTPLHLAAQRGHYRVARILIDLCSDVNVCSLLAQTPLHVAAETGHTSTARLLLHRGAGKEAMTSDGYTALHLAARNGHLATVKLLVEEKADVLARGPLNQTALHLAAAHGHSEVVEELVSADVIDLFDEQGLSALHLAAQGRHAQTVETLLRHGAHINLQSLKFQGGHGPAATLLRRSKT
# [2] = molecular target: Serine/threonine-protein kinase SIK3 (Homo sapiens) (UniProt Q9Y2K2); experiment: Selectivity interaction (KinomeScan (DiscoverX)) EUB0000045b SIK3
# Chain of Serine/threonine-protein kinase SIK3 (Homo sapiens) (Q9Y2K2 whole entry, looked up): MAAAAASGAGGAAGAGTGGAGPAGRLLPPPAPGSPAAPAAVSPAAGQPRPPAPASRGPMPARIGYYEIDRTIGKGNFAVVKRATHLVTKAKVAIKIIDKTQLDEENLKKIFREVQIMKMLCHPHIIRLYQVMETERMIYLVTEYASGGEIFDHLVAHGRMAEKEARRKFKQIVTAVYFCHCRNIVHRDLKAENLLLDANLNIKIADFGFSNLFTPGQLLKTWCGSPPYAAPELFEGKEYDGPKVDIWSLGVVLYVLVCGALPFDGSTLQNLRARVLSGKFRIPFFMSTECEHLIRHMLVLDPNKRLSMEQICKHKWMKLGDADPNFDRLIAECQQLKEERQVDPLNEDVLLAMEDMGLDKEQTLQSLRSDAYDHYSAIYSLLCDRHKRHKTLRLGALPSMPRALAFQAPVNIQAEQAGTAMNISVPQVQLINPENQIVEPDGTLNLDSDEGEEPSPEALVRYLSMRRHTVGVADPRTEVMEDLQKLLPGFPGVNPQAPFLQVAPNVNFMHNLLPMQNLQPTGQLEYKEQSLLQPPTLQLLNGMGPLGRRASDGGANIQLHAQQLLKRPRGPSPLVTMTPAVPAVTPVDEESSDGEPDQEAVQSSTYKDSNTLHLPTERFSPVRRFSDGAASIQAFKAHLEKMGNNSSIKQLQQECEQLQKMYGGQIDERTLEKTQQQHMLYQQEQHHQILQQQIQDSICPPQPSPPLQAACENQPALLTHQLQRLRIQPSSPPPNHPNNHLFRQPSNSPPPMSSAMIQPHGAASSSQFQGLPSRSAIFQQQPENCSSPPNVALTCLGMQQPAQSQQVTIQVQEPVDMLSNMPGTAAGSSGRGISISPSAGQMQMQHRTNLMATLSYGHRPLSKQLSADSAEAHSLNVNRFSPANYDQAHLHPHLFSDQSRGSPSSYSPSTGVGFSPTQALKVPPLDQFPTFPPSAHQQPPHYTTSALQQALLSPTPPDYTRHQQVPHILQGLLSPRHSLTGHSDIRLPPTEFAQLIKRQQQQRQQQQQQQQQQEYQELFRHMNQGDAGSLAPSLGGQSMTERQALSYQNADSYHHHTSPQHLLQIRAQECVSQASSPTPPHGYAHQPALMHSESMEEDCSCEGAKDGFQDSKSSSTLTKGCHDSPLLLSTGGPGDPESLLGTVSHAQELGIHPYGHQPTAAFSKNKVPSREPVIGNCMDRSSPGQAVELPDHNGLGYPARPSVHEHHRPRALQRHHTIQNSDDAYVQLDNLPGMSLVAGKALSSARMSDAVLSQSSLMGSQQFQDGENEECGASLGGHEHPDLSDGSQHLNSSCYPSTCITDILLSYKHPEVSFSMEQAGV
# [3] = molecular target: T2, Ephrin type-B receptor 6 (Homo sapiens) (UniProt O15197); settings: at 10 µM
# T2 sequence (whole entry): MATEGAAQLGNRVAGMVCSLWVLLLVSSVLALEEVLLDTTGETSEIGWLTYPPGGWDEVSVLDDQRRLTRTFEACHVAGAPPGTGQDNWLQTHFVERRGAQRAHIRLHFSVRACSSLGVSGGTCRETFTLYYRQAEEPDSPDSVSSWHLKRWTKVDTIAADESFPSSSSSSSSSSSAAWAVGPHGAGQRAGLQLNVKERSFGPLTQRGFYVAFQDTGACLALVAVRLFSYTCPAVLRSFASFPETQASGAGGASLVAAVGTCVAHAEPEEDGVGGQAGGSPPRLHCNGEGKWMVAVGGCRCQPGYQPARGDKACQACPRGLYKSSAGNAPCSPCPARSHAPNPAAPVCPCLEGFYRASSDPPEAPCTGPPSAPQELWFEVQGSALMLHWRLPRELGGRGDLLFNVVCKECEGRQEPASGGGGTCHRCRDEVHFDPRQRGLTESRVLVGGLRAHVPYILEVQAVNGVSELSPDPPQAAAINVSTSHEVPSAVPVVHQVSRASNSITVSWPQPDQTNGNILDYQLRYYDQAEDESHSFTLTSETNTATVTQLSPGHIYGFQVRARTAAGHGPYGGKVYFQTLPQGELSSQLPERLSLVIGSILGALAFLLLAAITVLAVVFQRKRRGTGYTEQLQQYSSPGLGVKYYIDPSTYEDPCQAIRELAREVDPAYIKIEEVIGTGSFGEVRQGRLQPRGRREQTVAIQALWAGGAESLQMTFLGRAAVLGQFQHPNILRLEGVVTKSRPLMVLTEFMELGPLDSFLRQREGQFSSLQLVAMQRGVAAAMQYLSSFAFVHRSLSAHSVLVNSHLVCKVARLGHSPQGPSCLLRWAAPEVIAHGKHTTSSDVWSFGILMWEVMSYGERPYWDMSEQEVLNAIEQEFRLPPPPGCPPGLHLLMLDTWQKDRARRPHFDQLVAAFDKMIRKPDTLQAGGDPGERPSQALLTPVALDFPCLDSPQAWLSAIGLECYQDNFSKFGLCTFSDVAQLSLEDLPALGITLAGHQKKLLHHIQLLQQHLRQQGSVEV
# [4] = molecular target: Glutamate receptor 1 (Homo sapiens) (UniProt P42261); experiment: Selectivity interaction (Eurofins CEREP Diversity Profile (receptors and ion channels)) EUB0000279b GRIA1; settings: at 10 µM
# Chain of Glutamate receptor 1 (Homo sapiens) (P42261 whole entry): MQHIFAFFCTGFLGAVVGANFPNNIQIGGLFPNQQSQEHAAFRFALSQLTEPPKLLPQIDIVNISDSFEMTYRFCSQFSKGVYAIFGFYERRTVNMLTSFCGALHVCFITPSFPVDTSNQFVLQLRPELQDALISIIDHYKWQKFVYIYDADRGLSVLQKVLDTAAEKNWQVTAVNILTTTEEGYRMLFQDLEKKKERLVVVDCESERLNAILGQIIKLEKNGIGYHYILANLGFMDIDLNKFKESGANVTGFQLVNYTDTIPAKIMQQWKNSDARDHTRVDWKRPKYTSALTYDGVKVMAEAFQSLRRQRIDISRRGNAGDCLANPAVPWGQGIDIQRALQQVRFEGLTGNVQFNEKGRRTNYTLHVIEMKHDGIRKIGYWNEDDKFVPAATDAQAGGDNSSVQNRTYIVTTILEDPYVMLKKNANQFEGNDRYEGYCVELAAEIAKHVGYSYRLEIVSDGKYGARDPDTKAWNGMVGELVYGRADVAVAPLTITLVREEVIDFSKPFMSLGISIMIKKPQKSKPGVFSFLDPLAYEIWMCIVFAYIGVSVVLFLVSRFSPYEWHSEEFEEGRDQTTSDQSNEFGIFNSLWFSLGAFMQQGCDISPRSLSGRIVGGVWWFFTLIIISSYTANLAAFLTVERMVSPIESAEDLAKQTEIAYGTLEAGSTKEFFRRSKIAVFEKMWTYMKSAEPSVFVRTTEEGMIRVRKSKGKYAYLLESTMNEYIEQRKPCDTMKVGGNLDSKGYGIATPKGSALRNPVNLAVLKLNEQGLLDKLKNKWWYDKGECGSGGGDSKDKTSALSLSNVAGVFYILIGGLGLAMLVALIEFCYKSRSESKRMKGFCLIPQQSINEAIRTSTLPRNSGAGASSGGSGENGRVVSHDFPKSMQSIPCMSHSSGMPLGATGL
# [5] = molecular target: Serine/threonine-protein kinase PAK 2 (Homo sapiens) (UniProt Q13177); experiment: Selectivity interaction (KinomeScan (DiscoverX)) EUB0001619a PAK2; settings: at 1 µM
# Chain of Serine/threonine-protein kinase PAK 2 (Homo sapiens) (Q13177 whole entry): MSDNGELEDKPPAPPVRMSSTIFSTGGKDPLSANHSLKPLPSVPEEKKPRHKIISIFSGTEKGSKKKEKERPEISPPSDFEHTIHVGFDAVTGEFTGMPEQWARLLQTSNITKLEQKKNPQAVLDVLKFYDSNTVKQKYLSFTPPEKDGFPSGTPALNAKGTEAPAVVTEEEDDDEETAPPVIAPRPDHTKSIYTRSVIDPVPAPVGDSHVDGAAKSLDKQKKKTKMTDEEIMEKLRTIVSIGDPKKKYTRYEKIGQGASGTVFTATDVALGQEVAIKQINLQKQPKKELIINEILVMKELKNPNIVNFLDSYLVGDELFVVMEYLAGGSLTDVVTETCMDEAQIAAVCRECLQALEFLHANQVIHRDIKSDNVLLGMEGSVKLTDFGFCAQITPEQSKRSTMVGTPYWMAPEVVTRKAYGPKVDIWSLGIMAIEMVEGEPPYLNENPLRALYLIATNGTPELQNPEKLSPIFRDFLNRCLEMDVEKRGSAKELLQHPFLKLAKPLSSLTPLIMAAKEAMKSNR
# [6] = molecular target: T3, Sphingosine kinase 2 (Homo sapiens) (UniProt Q9NRA0); experiment: Selectivity interaction (Kinase panel (literature)) EUB0001199aCl SPHK2; settings: at 1 µM
# T3 sequence (whole entry): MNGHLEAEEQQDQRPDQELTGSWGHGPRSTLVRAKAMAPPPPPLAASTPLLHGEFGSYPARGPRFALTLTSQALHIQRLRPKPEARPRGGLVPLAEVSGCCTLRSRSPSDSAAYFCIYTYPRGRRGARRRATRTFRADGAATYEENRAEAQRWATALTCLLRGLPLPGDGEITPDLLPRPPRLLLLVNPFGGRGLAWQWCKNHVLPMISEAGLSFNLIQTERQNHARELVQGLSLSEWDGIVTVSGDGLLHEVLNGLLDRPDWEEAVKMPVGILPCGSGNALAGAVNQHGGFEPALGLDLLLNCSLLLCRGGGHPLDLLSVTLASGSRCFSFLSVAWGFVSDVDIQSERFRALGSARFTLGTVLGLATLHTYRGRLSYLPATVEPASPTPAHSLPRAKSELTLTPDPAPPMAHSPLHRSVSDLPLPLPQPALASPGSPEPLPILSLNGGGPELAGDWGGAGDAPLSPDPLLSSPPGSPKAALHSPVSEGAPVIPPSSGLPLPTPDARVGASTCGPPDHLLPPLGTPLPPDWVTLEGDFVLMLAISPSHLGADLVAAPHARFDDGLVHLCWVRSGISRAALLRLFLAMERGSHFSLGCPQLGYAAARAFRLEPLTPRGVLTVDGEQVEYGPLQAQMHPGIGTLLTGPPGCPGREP
# [7] = molecular target: Protein arginine N-methyltransferase 3 (Homo sapiens, UniProt O60678); experiment: Selectivity interaction (Methyltransferase screen (Scintillation proximity assays)) EUB0000255b PRMT3
# Chain of Protein arginine N-methyltransferase 3 (O60678 2-531 limits assumed): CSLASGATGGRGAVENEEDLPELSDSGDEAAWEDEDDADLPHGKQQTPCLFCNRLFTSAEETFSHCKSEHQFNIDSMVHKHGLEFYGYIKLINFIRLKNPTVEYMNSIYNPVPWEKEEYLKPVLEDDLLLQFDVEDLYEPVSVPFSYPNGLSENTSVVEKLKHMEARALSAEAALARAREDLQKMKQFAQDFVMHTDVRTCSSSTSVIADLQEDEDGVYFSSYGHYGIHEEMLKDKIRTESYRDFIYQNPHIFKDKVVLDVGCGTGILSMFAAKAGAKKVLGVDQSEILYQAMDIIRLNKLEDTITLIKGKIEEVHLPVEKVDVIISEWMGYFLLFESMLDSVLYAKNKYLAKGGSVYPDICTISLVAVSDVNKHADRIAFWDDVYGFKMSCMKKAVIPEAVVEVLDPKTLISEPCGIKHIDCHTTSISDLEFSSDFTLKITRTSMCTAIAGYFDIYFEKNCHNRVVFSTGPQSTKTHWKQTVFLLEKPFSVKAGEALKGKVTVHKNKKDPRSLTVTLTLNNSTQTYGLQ
# [8] = molecular target: Death-associated protein kinase 3 (Homo sapiens) (UniProt O43293); experiment: Selectivity interaction (Kinase panel (DSF assay)) EUB0001558a DAPK3
# Chain of Death-associated protein kinase 3 (Homo sapiens) (O43293 whole entry, looked up): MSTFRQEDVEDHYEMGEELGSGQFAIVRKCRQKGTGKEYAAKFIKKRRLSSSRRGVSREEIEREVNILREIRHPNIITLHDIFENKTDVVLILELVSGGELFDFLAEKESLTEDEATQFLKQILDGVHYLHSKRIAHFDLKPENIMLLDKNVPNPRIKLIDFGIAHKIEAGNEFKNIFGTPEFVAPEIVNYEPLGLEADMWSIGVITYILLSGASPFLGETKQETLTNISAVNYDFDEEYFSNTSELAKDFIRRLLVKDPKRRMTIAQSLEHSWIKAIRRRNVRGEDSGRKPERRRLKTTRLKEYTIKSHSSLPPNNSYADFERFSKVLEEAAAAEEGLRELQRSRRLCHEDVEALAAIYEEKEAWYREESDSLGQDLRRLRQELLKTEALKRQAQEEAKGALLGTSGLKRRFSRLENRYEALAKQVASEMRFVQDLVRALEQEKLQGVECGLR
# [9] = molecular target: Casein kinase II subunit alpha (Homo sapiens, UniProt P68400); experiment: Selectivity interaction (KinomeScan (DiscoverX)) EUB0000618a CSNK2A1; settings: at 10 µM
# Chain of Casein kinase II subunit alpha (P68400 whole entry, looked up): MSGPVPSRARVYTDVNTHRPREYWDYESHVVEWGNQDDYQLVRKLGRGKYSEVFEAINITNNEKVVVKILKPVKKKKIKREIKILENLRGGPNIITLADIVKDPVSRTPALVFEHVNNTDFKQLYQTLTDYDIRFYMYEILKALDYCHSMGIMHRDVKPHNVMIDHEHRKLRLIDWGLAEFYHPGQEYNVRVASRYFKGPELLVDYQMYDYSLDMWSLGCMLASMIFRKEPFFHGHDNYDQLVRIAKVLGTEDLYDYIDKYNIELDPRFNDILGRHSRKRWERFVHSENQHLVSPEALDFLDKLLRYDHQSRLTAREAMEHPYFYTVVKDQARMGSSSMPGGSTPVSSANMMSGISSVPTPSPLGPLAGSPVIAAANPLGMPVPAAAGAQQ
smiles,measurement,setting,value
COCC(=O)NC/C=C/c1ccc2ncnc(Nc3ccc(Oc4ccc(C)nc4)c(C)c3)c2c1 [CP-724714],% of control,[1],100%
C=CC(=O)Nc1cc(-n2c(=O)ccc3cnc4ccc(-c5ccc(NS(C)(=O)=O)cc5)cc4c32)ccc1C,% of control,[2]; at 1 µM,100%
same,% of control,[2]; at 10 µM,100%
Cc1cc([C@@H](C)Nc2ccccc2C(=O)O)c2nc(N3CCOCC3)cc(=O)n2c1 [AZD-6482],% of control,[3],41%
CC(=O)c1cc(-c2ccccc2OCC2CC2)c2ncccn12,% of control,[4],93%
N#Cc1cccc(-c2c[nH]c3ncnc(N4CCOCC4)c23)c1,% of control,[5],100%
CN1Cc2nccc(-c3cn(C)nc3-c3ccc(F)cc3)c2C1=O,% of inhibition,[6],-7%
COCCN1CCC(c2cc(CN(C)C(=O)c3cccc(Oc4ccccc4)c3)ccn2)CC1,% activity,[7]; at 1 µM,> 95%
same,% activity,[7]; at 10 µM,> 90%
CC(C)(O)[C@H](F)CN1Cc2cc(NC(=O)c3cnn4cccnc34)c(N3CCOCC3)cc2C1=O,dTM,[8],1.8 K
O[C@H]1CC[C@H](Nc2ncc3nc(Nc4c(F)cc(F)cc4F)n([C@H]4CCOC4)c3n2)CC1,% of control,[9],100%
